Data published in patent publication US12396964B2 (Shinkei Therapeutics, Inc., priority 2021, dated 2025).
Structures can show the parent of a compound that is named as a salt.

What was measured:
[1] = Applicants' finding on safety of the intravenous dose, volume and rate of administration
Description: As discussed above, the volume of fluid is not only critical in terms of increase in ICP, but it is also critical in terms of defining the time of administration of the dose, and therefore, the rate of administration of the dose. […] Each dose is administered over a period of 180 minutes, i.e. at a rate of about 1.39 ml/min.

[2] = clinical; conditions: human, in vivo
Description: The subjects received the test treatments as described in Table 1 below, under direct observation following an overnight fast of at least 10 hours.
Plasma concentrations of amantadine increased rapidly and reached maximum plasma concentrations at around 3 hours after start of the IV infusion.
The plasma amantadine concentrations from healthy adults enrolled in the open-label, multiple-cohort, single-period non-randomized single-ascending dose study of Example 1 were used to determine the decrease in concentration of amantadine over time, after the administration of the first dose of 100 mg and 150 mg in different cohorts. The data is supportive in determining the timing of the second dose of amantadine.

[3] = Safety and tolerability study of amantadine hydrochloride IV solution 200 mg with plasma sampling in healthy adult subjects (Example 2); assay type: in vivo, human; conditions: 200 mg IV
Description: 4 mL venous blood was collected before dosing (0 hour) and at the following nominal times after dosing: 0.5, 1, 2, 3, 4, 5, 5.5, 6, 7, 9, 12, 16, 24, 36, 48 and 72 hours post-dose. Safety was assessed by qualified study staff by evaluating the following: reported adverse events, clinical laboratory test results, vital sign measurements, ECG findings, physical examination findings at screening and clinic exit (including body weight and height measurements), and concomitant medication usage. The blood samples collected were used to assess the decrease in concentration of amantadine in the plasma over time, and is tabulated in Table 3 below.

half-life ([2]; both sexes, iv, T1/2): 11.4 h
Tmax ([2]; both sexes, iv, Tmax): 3 h
half-life ([2]; both sexes, iv, half-life (T½)): 11 to 15 h
Tmax ([2]; both sexes, iv, maximum plasma concentration (Tmax)): 3 to 4 h
half-life ([2]; both sexes, iv, mean elimination half-life): 11.5 to 14.5 h
increase of AUC0-28, more than proportional to the dose ([2]; both): ~3 fold
increase of Cmax, more than proportional to the dose ([2]; both): ~2.3 fold
Tmax ([2]; both, iv): 3.25 h
plasma levels remained detectable post-dose ([2]; both, iv, 3 h): 48 to 72 h
SMILES: NC12CC3CC(CC(C3)C1)C2 [amantadine hydrochloride]
safety of the dose ([1]; about 100 mg to about 200 mg in a volume of 250 ml as a single dose, over 180 minutes, twice a day): safe
safety of the rate of administration ([1]; rate ranging between 0.5 mg/min to about 1.2 mg/min): safe
% decrease in plasma amantadine concentration ([3]; 0 hr after first dose): 0.0%
% decrease in plasma amantadine concentration ([3]; 1 hr after first dose): 14.0%
% decrease in plasma amantadine concentration ([3]; 2 hr after first dose): 20.9%
% decrease in plasma amantadine concentration ([3]; 2.5 hr after first dose): 24.5%
% decrease in plasma amantadine concentration ([3]; 3 hr after first dose): 26.2%
% decrease in plasma amantadine concentration ([3]; 4 hr after first dose): 30.0%
% decrease in plasma amantadine concentration ([3]; 6 hr after first dose): 34.5%
% decrease in plasma amantadine concentration ([3]; 9 hr after first dose): 48.3%
